Measured values as given in PMC10681007, “Targeted Degradation of XIAP is Sufficient and Specific to Induce Apoptosis in MYCN-overexpressing High-risk Neuroblastoma” (Cancer Research Communications, 2023).

How the values were obtained:
Type in all cases: cell-based, Human
CHP212 = assay: RealTime-Glo MT cell viability assay; conditions: Homo sapiens, CHP-212
Protocol: (§1) Cell viability was measured in real time using RealTime-Glo MT Cell Viability Assay as according to manufacturer's instructions from Promega. Cells were seeded at 1 × 10^4 cells per well and treated with a range of doses of indicated antagonists, followed by continuous bioluminescence reading every 24 hours for 3 days using luminescent plate reader, Varioskan (SkanIT software). IC50 was determined using GraphPad Prism software.
(§2) To determine their efficacy in neuroblastoma, a panel of neuroblastoma cell lines including neuroblastoma patient-derived cell lines and noncancerous normal tissue-derived cell lines were treated with increasing doses of each antagonist (0–100 µmol/L), followed by real-time measurement of cell viability every 24 for 72 hours.

NB1 = assay: RealTime-Glo MT cell viability assay; conditions: Homo sapiens
Protocol: as §1, §2

[1] = test system: NBL01-1116 patient-derived neuroblastoma cells; assay: RealTime-Glo MT cell viability assay; conditions: Homo sapiens, Neuroblastoma cell
Protocol: as §1, §2

IMR-32 = assay: RealTime-Glo MT cell viability assay; conditions: Homo sapiens
Protocol: as §1, §2

BE(2)-C = assay: RealTime-Glo MT cell viability assay; conditions: Homo sapiens
Protocol: as §1, §2

SK-N-AS = assay: RealTime-Glo MT cell viability assay; conditions: Homo sapiens
Protocol: as §1, §2

NLF = assay: RealTime-Glo MT cell viability assay; conditions: Homo sapiens
Protocol: as §1, §2

[2] = test system: NBL-07-0317 patient-derived neuroblastoma cells; assay: RealTime-Glo MT cell viability assay; conditions: Homo sapiens, Neuroblastoma cell
Protocol: as §1, §2

KELLY = assay: RealTime-Glo MT cell viability assay; conditions: Homo sapiens
Protocol: as §1, §2

[3] = test system: NBL27-0218A patient-derived neuroblastoma cells; assay: RealTime-Glo MT cell viability assay; conditions: Homo sapiens, Neuroblastoma cell
Protocol: as §1, §2

[4] = test system: NBL16-0118 patient-derived neuroblastoma cells; assay: RealTime-Glo MT cell viability assay; conditions: Homo sapiens, Neuroblastoma cell
Protocol: as §1, §2

SK-N-SH = assay: RealTime-Glo MT cell viability assay; conditions: Homo sapiens
Protocol: as §1, §2

THLE3 and HS5 = assay: Toxicity and tolerability in noncancerous normal tissue-derived cell lines; conditions: THLE3 and HS5 versus neuroblastoma cells
Protocol: as §1
To evaluate this, noncancerous normal tissue-derived cell lines THLE3 and HS5 were utilized to evaluate toxicity and tolerability. […] On the basis of their overall potency and specificity toward neuroblastoma cells over noncancerous normal cells, A4, B3, and BV6 were selected as the more efficacious antagonists to be studied further in subsequent experiments (Fig. 2A).

HS5 (bone marrow origin) = assay: RealTime-Glo MT cell viability assay, noncancerous normal cells; conditions: Homo sapiens
Protocol: as §1, §2
(§3) To evaluate this, noncancerous normal tissue-derived cell lines THLE3 and HS5 were utilized to evaluate toxicity and tolerability.

THLE3 (liver origin) = assay: as above; conditions: Homo sapiens
Protocol: as §1, §2, §3

[5] = test system: neuroblastoma cells across the panel of cell lines; assay: Cell viability, IC50 range across the panel; conditions: Homo sapiens, Neuroblastoma cell; range over cell lines, doses 0–100 µmol/L, viability every 24 for 72 hours; read-out: IC50 against neuroblastoma cells across the panel of cell lines
Protocol: as §1, with “([…]” for “(SkanIT”, “software. To determine their efficacy in neuroblastoma, a panel of neuroblastoma cell lines including neuroblastoma patient-derived cell lines and noncancerous normal tissue-derived cell lines were treated with increasing doses of each antagonist (0-100 μmol/L), followed by real-time measurement of cell viability every 24 for 72 hours. […] Supplementary Table S2; Fig. 2A). […] Fig. 2A).” for “software.”

Structure (SMILES): CN[C@@H](C)C(=O)N[C@H](C(=O)N1CCC[C@H]1C(=O)Nc1sc(-c2ncco2)nc1-c1ccccc1)C1CCCCC1 [CUDC-427]
- IC50 (CHP212; CHP212, 24 hours): 57.6 µM
- IC50 (CHP212; CHP212, 48 hours): 50.1 µM
- IC50 (CHP212; CHP212, 72 hours): 50 µM
- IC50 (NB1; NB1, 24 hours): 42 µM
- IC50 (NB1; NB1, 48 hours): 38.1 µM
- IC50 (NB1; NB1, 72 hours): 36.9 µM
- IC50 ([1]; NBL01-1116, 24 hours): 40 µM
- IC50 ([1]; NBL01-1116, 48 hours): 38 µM
- IC50 ([1]; NBL01-1116, 72 hours): 38 µM
- IC50 (IMR-32; IMR-32, 24 hours): 59 µM
- IC50 (IMR-32; IMR-32, 48 hours): 46.5 µM
- IC50 (IMR-32; IMR-32, 72 hours): 40.6 µM
- IC50 (BE(2)-C; 24 hours): 64.9 µM
- IC50 (BE(2)-C; 48 hours): 60.9 µM
- IC50 (BE(2)-C; 72 hours): 55.6 µM
- IC50 (SK-N-AS; 24 hours): 33.2 µM
- IC50 (SK-N-AS; 48 hours): 26.9 µM
- IC50 (SK-N-AS; 72 hours): 22.3 µM
- IC50 (NLF; 24 hours): 45 µM
- IC50 (NLF; 48 hours): 38.6 µM
- IC50 (NLF; 72 hours): 30.2 µM
- IC50 ([2]; NBL-07-0317, 24 hours): 33.5 µM
- IC50 ([2]; NBL-07-0317, 48 hours): 33 µM
- IC50 ([2]; NBL-07-0317, 72 hours): 32 µM
- IC50 (KELLY; 24 hours): 32.5 µM
- IC50 (KELLY; 48 hours): 29.5 µM
- IC50 (KELLY; 72 hours): 26 µM
- IC50 ([3]; 24 hours): 32.8 µM
- IC50 ([3]; 48 hours): 30.4 µM
- IC50 ([3]; 72 hours): 28.4 µM
- IC50 ([4]; NBL16-0118, 24 hours): 35 µM
- IC50 ([4]; NBL16-0118, 48 hours): 32 µM
- IC50 ([4]; NBL16-0118, 72 hours): 30 µM
- IC50 (SK-N-SH; 24 hours): 54.1 µM
- IC50 (SK-N-SH; 48 hours): 40 µM
- IC50 (SK-N-SH; 72 hours): 33.5 µM
- toxicity to noncancerous cells (THLE3 and HS5): more toxic toward noncancerous cells than neuroblastoma cells
- IC50 (HS5 (bone marrow origin); HS5, 24 hours): 29.9 µM
- IC50 (HS5 (bone marrow origin); HS5, 48 hours): 26.5 µM
- IC50 (HS5 (bone marrow origin); HS5, 72 hours): 23.8 µM
- IC50 (THLE3 (liver origin); THLE3, 24 hours): 40.2 µM
- IC50 (THLE3 (liver origin); THLE3, 48 hours): 28.8 µM
- IC50 (THLE3 (liver origin); THLE3, 72 hours): 29.5 µM
- IC50 [5]: 20 to 60 µM

Structure (SMILES): CN[C@@H](C)C(=O)N[C@H]1CN(C(=O)CC(C)C)CC[C@H]2CC[C@@H](C(=O)NC(c3ccccc3)c3ccccc3)N2C1=O [Debio 1143]
- IC50 (CHP212; CHP212, 24 hours): > 100 µM
- IC50 (CHP212; CHP212, 48 hours): > 100 µM
- IC50 (CHP212; CHP212, 72 hours): > 100 µM
- IC50 (NB1; NB1, 24 hours): > 100 µM
- IC50 (NB1; NB1, 48 hours): > 100 µM
- IC50 (NB1; NB1, 72 hours): 64.5 µM
- IC50 ([1]; NBL01-1116, 24 hours): > 100 µM
- IC50 ([1]; NBL01-1116, 48 hours): > 100 µM
- IC50 ([1]; NBL01-1116, 72 hours): > 100 µM
- IC50 (IMR-32; IMR-32, 24 hours): > 100 µM
- IC50 (IMR-32; IMR-32, 48 hours): > 100 µM
- IC50 (IMR-32; IMR-32, 72 hours): 64.5 µM
- IC50 (BE(2)-C; 24 hours): > 100 µM
- IC50 (BE(2)-C; 48 hours): > 100 µM
- IC50 (BE(2)-C; 72 hours): > 100 µM
- IC50 (SK-N-AS; 24 hours): 68.5 µM
- IC50 (SK-N-AS; 48 hours): 50.5 µM
- IC50 (SK-N-AS; 72 hours): 85 µM
- IC50 (NLF; 24 hours): > 100 µM
- IC50 (NLF; 48 hours): 78.5 µM
- IC50 (NLF; 72 hours): > 100 µM
- IC50 ([2]; NBL-07-0317, 24 hours): > 100 µM
- IC50 ([2]; NBL-07-0317, 48 hours): 93 µM
- IC50 ([2]; NBL-07-0317, 72 hours): > 100 µM
- IC50 (KELLY; 24 hours): 91 µM
- IC50 (KELLY; 48 hours): 73.5 µM
- IC50 (KELLY; 72 hours): > 100 µM
- IC50 ([3]; 24 hours): > 100 µM
- IC50 ([3]; 48 hours): > 100 µM
- IC50 ([3]; 72 hours): 50 µM
- IC50 ([4]; NBL16-0118, 24 hours): > 100 µM
- IC50 ([4]; NBL16-0118, 48 hours): > 100 µM
- IC50 ([4]; NBL16-0118, 72 hours): > 100 µM
- IC50 (SK-N-SH; 24 hours): > 100 µM
- IC50 (SK-N-SH; 48 hours): > 100 µM
- IC50 (SK-N-SH; 72 hours): 35.5 µM
- toxicity to noncancerous cells (THLE3 and HS5): more toxic toward noncancerous cells than neuroblastoma cells
- IC50 (HS5 (bone marrow origin); HS5, 24 hours): > 100 µM
- IC50 (HS5 (bone marrow origin); HS5, 48 hours): 90 µM
- IC50 (HS5 (bone marrow origin); HS5, 72 hours): > 100 µM
- IC50 (THLE3 (liver origin); THLE3, 24 hours): > 100 µM
- IC50 (THLE3 (liver origin); THLE3, 48 hours): 73 µM
- IC50 (THLE3 (liver origin); THLE3, 72 hours): 80 µM
